Measurements reported in article PMC9675574 (JCI Insight, 2022).

Tested on: cerulein-induced pancreatitis in T7K24R mice
Assay: Cerulein-induced pancreatitis in T7K24R mice
Type: in vivo, mouse
Conditions: single oral gavage 200 mg/kg; 15 treated mice
Procedure: Pancreatitis was induced in T7K24R mice with 8 hourly intraperitoneal injections of the secretagogue peptide cerulein used in a dose of 50 μg/kg. Cerulein (catalog number C9026, MilliporeSigma) was dissolved in sterile normal saline at 10 μg/mL concentration. Mice were sacrificed 1, 24, 48, 72, or 96 hours from the first cerulein injection, as indicated, and the pancreas and blood were harvested. Details of histological analysis and measurement of plasma amylase (4 μL assayed) were reported previously ([29]–[31]).
Control mice were given gavage of the vehicle solution (Captisol; see below) or regular chow.
Captisol (β-cyclodextrin sulfobutyl ethers, sodium salts, lot number NC-04A-180185) was obtained from Cydex Pharmaceuticals (through Thermo Fisher Scientific) and was dissolved in sterile normal saline (3.5 g in 10 mL). […] The mixture was then compressed into pellets using the barrel of a 10 mL plastic syringe and a plunger. The prodrug-containing pellets were allowed to dry at 24°C for 2 days and stored at 4°C until use.

SMILES: [H]/N=C(/N)c1ccc(NCc2nc3cc(C(=O)N(CCC(=O)O)c4ccccn4)ccc3n2C)cc1 [dabigatran]
- share of mice with limited efficacy (less than 25% of normal acini preserved): 30%
